Source: patent US5440033A, “Indolyl-, pyrrolyl- and pyrazolyl substituted benzazepines” (Schering Corporation, priority 1993, dated 1995)
Like-named read-outs stand apart in the source and are kept apart here.

Tests used:
dopamine D-1 receptor = target: T1, dopamine D-1 receptor (Rattus norvegicus, UniProt P18901); assay: Competitive inhibition assay, displacement of 3H-SCH 23390 (D1), rat striatal tissue; type: binding, rat (male Sprague-Dawley); conditions: 3H-SCH 23390 0.3 nM, rat striatum, pH 7.4, 37° C., 15 minutes
T1 construct: Striatal tissue was excised, pooled, and homogenized; from tissue; host or cells: rat brain striatum (male Sprague-Dawley)
T1 sequence (P18901 whole entry): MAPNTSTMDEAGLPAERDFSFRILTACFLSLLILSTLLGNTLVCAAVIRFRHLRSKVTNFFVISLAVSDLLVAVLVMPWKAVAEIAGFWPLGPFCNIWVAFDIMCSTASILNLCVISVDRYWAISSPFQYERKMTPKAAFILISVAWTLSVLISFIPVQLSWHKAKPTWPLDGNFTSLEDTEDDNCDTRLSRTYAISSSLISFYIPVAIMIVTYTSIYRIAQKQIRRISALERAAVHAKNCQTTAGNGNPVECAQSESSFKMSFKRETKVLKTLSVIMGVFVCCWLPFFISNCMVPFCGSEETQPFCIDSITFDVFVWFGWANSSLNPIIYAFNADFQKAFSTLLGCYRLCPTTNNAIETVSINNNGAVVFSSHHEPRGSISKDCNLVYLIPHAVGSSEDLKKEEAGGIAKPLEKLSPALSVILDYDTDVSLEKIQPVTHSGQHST
From the text: (§1) A methodology for characterization of binding and an interpretation of the data are described by Billard et al., Life Sciences 35, 1885 (1984) in which the binding of the benzazepine (R)-(+)-8-chloro-2,3,4,5-tetrahydro-3-methyl-5-phenyl-1H-3-benzazepin-7-olhemimaleate (SCH 23390) to the dopamine D-1 receptor is characterized.
(§2) Tritiated SCH 23390 and tritiated spiperone (a potent D-2 ligand) were obtained as described in the Billard et al. reference supra and serially diluted in 0.05M Tris buffer, pH 7.4, as required. A compound of the invention is diluted in 0.05M Tris buffer, pH 7.4, as required.
(§3) Male Sprague-Dawley rats (200 to 250 g) from Charles River Breeding Laboratories, Mass. were used to obtain brain tissue. The rats were humanely sacrificed and their brains removed and placed on ice. Striatal tissue was excised, pooled, and homogenized (Brinkman Polytron, 10 seconds) in 100 volumes (w/v) of ice cold 50 mM Tris buffer, pH 7.4 (at 25° C.). The homogenate was centrifuged at 20,000×g for 10 minutes. The resultant pellet was rehomogenized in Tris buffer and centrifuged again. The final pellet was resuspended in 50 mM Tris buffer pH 7.4 containing 120 mM NaCl, […], 1 mM CaCl2, and 1 mM MgCl2.
(§4) Polypropylene incubation tubes received 100 μl of the individual test compounds at various concentrations dissolved or suspended in 0.05M Tris, pH 7.4 containing 4 mg/ml methylcellulose, 100 μl of a solution of ^3 H-SCH 23390 in Tris buffer (final reaction mixture concentration=0.3 nM) or 100 μl of a solution of 3H-spiperone in Tris buffer (final concentration=0.2 nM) and 800 μl of tissue suspension (ca. 3 mg/assay). Tubes were incubated at 37° C. for 15 minutes and rapidly vacuum filtered through Whatman GM/B filters and rinsed 4 times with 4 ml of ice cold 50 mM Tris buffer, pH 7.4. The filters were transferred to scintillation vials, equilibrated with 10 ml of scintillant (Scintosol, Isolab, Inc.) for 16 hours at 25° C. and the radioactivity determined in a liquid scintillation counter. Ki values were determined as described by Billard et al. using the relationship Ki =IC50 /(1+([L]/KD)) wherein IC50 =concentration of test drug necessary to displace 50% of specifically bound ^3 H-Sch 23390, [L]=concentration of radioligand used in the assay, and KD =dissociation constant.

D-2 receptor = target: T2, D-2 receptor (Rattus norvegicus, UniProt P61169); assay: Competitive inhibition assay, displacement of 3H-spiperone (D2), rat striatal tissue; type: binding, rat (male Sprague-Dawley); conditions: 3H-spiperone 0.2 nM, rat striatum; for Ki: pH 7.4, 37° C., 15 minutes
T2 construct: Striatal tissue was excised, pooled, and homogenized; from tissue; host or cells: rat brain striatum (male Sprague-Dawley)
T2 sequence (P61169 whole entry): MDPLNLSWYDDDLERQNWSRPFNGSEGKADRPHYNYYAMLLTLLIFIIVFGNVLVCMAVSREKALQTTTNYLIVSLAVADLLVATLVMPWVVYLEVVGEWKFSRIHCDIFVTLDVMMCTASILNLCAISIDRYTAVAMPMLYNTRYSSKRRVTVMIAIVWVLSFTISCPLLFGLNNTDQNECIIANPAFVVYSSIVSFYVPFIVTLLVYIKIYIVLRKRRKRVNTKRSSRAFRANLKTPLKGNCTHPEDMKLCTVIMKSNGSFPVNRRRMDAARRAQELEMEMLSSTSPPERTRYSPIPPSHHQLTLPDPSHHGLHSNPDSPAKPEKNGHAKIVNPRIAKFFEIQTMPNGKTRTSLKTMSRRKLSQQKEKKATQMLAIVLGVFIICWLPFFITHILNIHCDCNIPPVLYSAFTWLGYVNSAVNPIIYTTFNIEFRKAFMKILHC
From the text: as §1, §2, §3, §4

[1] = Conditioned avoidance suppression in rats (CAR); type: in vivo; conditions: rat; for minimal effective dose: read-out: Rat CAR (minimal effective dose, MED)
Protocol: N.Y. Acad. Sci. 66, 740 (1957). A series of experiments was carried out to assess the ability of the compounds of this invention to suppress the conditioned avoidance response (CAR) in rats.
Rats were required to jump onto a platform located 6.75 inches (17.15 cm) above the grid floor of an experimental chamber in response to a 5-second tone to avoid a 10-second foot shock (0.6 ma). Each experimental session consisted of 20 such trials presented at 30-second intervals. A correct CAR is scored whenever the rat jumps onto the platform during the tone (prior to foot shock). An escape response is scored when the rat jumps onto the platform during a shock. A response failure is defined as the lack of an escape response during the 10-second shock period.
Groups of 6-8 rats were trained in two consecutive days (total of 40 trials). Rats that reached criterion on day 2 (correct CARs on 16 or more of the 20 trials) were treated with either a test drug or vehicle on day 3. Suppression of CAR was analyzed statistically using Student's t-test comparing the performances of drug-treated to vehicle-treated rats.

[2] = Conditioned avoidance response, monkey (parenthesised entries in the Rat CAR column); type: in vivo
[3] = @ 1 h, lowest dose tested that significantly (P<0.05) reduced avoidance responding

CN1CCc2cc(Cl)c(O)cc2C(c2cccn2C)C1 (centres unmarked) [F]
Ki (dopamine D-1 receptor): 41 nM
Ki (D-2 receptor): 10000 nM

CN1CCc2cc(Cl)c(O)cc2C(c2ccn(C)c2)C1 (centres unmarked) [H]
Ki (dopamine D-1 receptor): 2.2 nM
Ki (D-2 receptor): 177 nM

Cc1cc(C2CN(C)CCc3cc(Cl)c(O)cc32)c(C)[nH]1 (single isomer, unassigned; (+)) [(+)D]
Ki (dopamine D-1 receptor): 0.54 nM
Ki (D-2 receptor): 590 nM
tremors ([1]; 30 po): tremors at 30 po
minimal effective dose [1, 3]: 10 mg/kg

Cc1cc(C2CN(C)CCc3cc(Cl)c(O)cc32)c(C)n1C (centres unmarked) [G]
Ki (dopamine D-1 receptor): 2.8 nM
Ki (D-2 receptor): 383 nM
minimal effective dose [1, 3]: 10 mg/kg
CAR, monkey ([2]; @ 4 h): 5 mpk

Cc1cc(C2CN(C)CCc3cc(Cl)c(O)cc32)c(C)[nH]1 (single isomer, unassigned; (-)) [(-)E]
Ki (dopamine D-1 receptor): 41 nM
Ki (D-2 receptor): 613 nM

Cc1cc(C2CN(C)CCc3cc(Cl)c(O)cc32)c(C)[nH]1 (racemic) [(±)C]
Ki (dopamine D-1 receptor): 2.8 nM
Ki (D-2 receptor): 2450 nM
minimal effective dose [1, 3]: 10 mg/kg
minimal effective dose ([1]; @ 6 h): 50 mg/kg
CAR, monkey ([2]; po @ 6 h): 1.5 mpk

CN1CCc2cc(Cl)c(O)cc2C(n2cccn2)C1 (centres unmarked) [Compound I]
Ki (dopamine D-1 receptor): 12 nM
Ki (D-2 receptor): > 10000 nM

CN1CCc2cc(Cl)c(O)cc2C(n2ccc3ccccc32)C1 (centres unmarked) [A]
Ki (dopamine D-1 receptor): 26 nM
Ki (D-2 receptor): > 10000 nM

Cc1cc2c(cc1O)C(n1ccc3ccccc31)CN(C)CC2 (centres unmarked) [B]
Ki (dopamine D-1 receptor): 607 nM
IC50 (D-2 receptor; printed as IC50 in the Ki column): > 10000 nM

CN1CCc2cc(Cl)c(O)cc2C(c2c[nH]c3ccccc23)C1 (centres unmarked) [K]
Ki (dopamine D-1 receptor): 55.2 nM
Ki (D-2 receptor): > 10000 nM

Cc1[nH]c2ccccc2c1C1CN(C)CCc2cc(Cl)c(O)cc21 (centres unmarked) [J]
Ki (dopamine D-1 receptor): 127 nM
Ki (D-2 receptor): > 10000 nM
